Reference: patent publication US12365692B2, “6-hydroxy-8-oxatricyclo[3.2.1.02,4]octane-2-carboxamide derivatives for inducing chondrogenesis for treating joint damage” (NOVARTIS AG, priority 2018, dated 2025)

Tested on: ALP in NHAC (normal human articular chondrocytes)
Experiment: Alkaline Phosphatase (ALP) activity assay: ALP staining and quantitation in NHACs (prevention of chondrocyte hypertrophy)
Type: cell-based
Settings: Chondrocyte, 288 h, human IL-1 beta 10 ng/mL, 12 days; for IC50: Fast Blue RR staining, high content imaging; for Emax: read-out: ALP in NHAC (% Efficacy)
Procedure: The compounds of the present invention were evaluated in the Alkaline Phosphatase (ALP) activity assay to determine the ability of the compounds to prevent chondrocyte hypertrophy in normal human articular chondrocytes (NHACs).
Normal human articular chondrocytes (NHACs) were purchased from PromoCell (Heidelberg, Germany) and grown in Chondrocyte Growth Medium (CGM; Lonza, Walkersville, Md.).
NHACs were expanded in Chondrocyte Growth Medium (CGM) from Lonza until they reached a 60-80% confluency. To initiate differentiation, 7,500 cells were plated/well with indicated test compound dose in 384-well Cell Carrier Ultra plates (Perkin Elmer) with DMEM (SH30022—HyClone) containing 10% FBS (35-015-CV—Corning), 1% Pen/Strep antibiotics (SV30010—HyClone), and 1% Normocin (50 mg/mL—InvivoGen). Cells with test compounds were incubated at 37° C., 5% CO2 for 5 hours and then added human IL-1 beta (AF-200-1B—Peprotech) to each well at a final concentration of 10 ng/mL and incubated at 37° C., 5% CO2 for 12 days.
To detect the presence of hypertrophic cells, NHACs were fixed with 4% paraformaldehyde and Hoechst 33342 (Invitrogen) dye for 30 minutes, rinsed in PBS, then stained with Fast Blue RR Salt (F0500—Sigma) with Naphthol AS-MX Phosphate Alkaline Solution, 0.25% (855—Sigma-Aldrich).
The staining was imaged by fluoresecent microscopy, using the 561 nm wavelength, and/or quantified by high content imaging with the ImageXpress Confocal (Molecular Devices, Sunnyvale, CA). Data analyses were performed with a customized multiwavelength cell-scoring application The activity of the compounds of the present invention in the ALP assay is summarized in Table 2.

SMILES: O=C(Nc1cc(C(F)(F)F)ccn1)[C@]12C[C@@]1(c1ccnc(F)c1)[C@H]1O[C@@H]2C[C@@H]1O (racemic) [Example 1, rac-(1R,2R,4S,5R,6S)-4-(2-fluoropyridin-4-yl)-6-hydroxy-N-(4-(trifluoromethyl)pyridin-2-yl)-8-oxatricyclo[3.2.1.02,4]octane-2-carboxamide]
- IC50: > 30 µM
- Emax: 28%

SMILES: O=C(Nc1ccc(C(F)(F)F)c(F)c1)[C@]12C[C@@]1(c1ccnc(F)c1)[C@H]1O[C@@H]2C[C@@H]1O (racemic) [Example 2, rac-(1R,2R,4S,5R,6S)-N-(3-fluoro-4-(trifluoromethyl)phenyl)-4-(2-fluoropyridin-4-yl)-6-hydroxy-8-oxatricyclo[3.2.1.02,4]octane-2-carboxamide]
- IC50: > 30 µM
- Emax: 28%

SMILES: O=C(Nc1ccc(C(F)(F)F)c(Cl)c1)[C@]12C[C@@]1(c1ccnc(F)c1)[C@H]1O[C@@H]2C[C@@H]1O (racemic) [Example 3, rac-(1R,2R,4S,5R,6S)—N-(3-chloro-4-(trifluoromethyl)phenyl)-4-(2-fluoropyridin-4-yl)-6-hydroxy-8-oxatricyclo[3.2.1.02,4]octane-2-carboxamide]
- IC50: 12 µM
- Emax: 71%

SMILES: O=C(Nc1cc(C(F)(F)F)cc(Cl)n1)[C@]12C[C@@]1(c1ccnc(F)c1)[C@H]1O[C@@H]2C[C@@H]1O (racemic) [Example 4, rac-(1R,2R,4S,5R,6S)—N-(6-chloro-4-(trifluoromethyl)pyridin-2-yl)-4-(2-fluoropyridin-4-yl)-6-hydroxy-8-oxatricyclo[3.2.1.02,4]octane-2-carboxamide]
- IC50: > 30 µM
- Emax: 0%

SMILES: O=C(Nc1cc(C(F)(F)F)c(Cl)cn1)[C@]12C[C@@]1(c1ccnc(F)c1)[C@H]1O[C@@H]2C[C@@H]1O (racemic) [Example 5, rac-(1R,2R,4S,5R,6S)-N-(5-chloro-4-(trifluoromethyl)pyridin-2-yl)-4-(2-fluoropyridin-4-yl)-6-hydroxy-8-oxatricyclo[3.2.1.02,4]octane-2-carboxamide]
- IC50: > 30 µM
- Emax: 38%

SMILES: O=C(Nc1cc(C(F)(F)F)cc(C2CC2)n1)[C@]12C[C@@]1(c1ccnc(F)c1)[C@H]1O[C@@H]2C[C@@H]1O (racemic) [Example 6, rac-(1R,2R,4S,5R,6S)—N-(6-cyclopropyl-4-(trifluoromethyl)pyridin-2-yl)-4-(2-fluoropyridin-4-yl)-6-hydroxy-8-oxatricyclo[3.2.1.02,4]octane-2-carboxamide]
- IC50: > 30 µM
- Emax: 9%

SMILES: Cc1cc(C(F)(F)F)cc(NC(=O)[C@]23C[C@@]2(c2ccnc(F)c2)[C@H]2O[C@@H]3C[C@@H]2O)n1 (racemic) [Example 7, rac-(1R,2R,4S,5R,6S)-4-(2-fluoropyridin-4-yl)-6-hydroxy-N-(6-methyl-4-(trifluoromethyl)pyridin-2-yl)-8-oxatricyclo[3.2.1.02,4]octane-2-carboxamide]
- IC50: > 30 µM
- Emax: 0%

SMILES: CCOc1cc(C(F)(F)F)cc(NC(=O)[C@]23C[C@@]2(c2ccnc(F)c2)[C@H]2O[C@@H]3C[C@@H]2O)n1 (racemic) [Example 8, rac-(1R,2R,4S,5R,6S)—N-(6-ethoxy-4-(trifluoromethyl)pyridin-2-yl)-4-(2-fluoropyridin-4-yl)-6-hydroxy-8-oxatricyclo[3.2.1.02,4]octane-2-carboxamide]
- IC50: > 30 µM
- Emax: 26%

SMILES: O=C(Nc1cccc(C(F)(F)F)c1)[C@]12C[C@@]1(c1ccnc(F)c1)[C@H]1O[C@@H]2C[C@@H]1O (racemic) [Example 9, rac-(1R,2R,4S,5R,6S)-4-(2-fluoropyridin-4-yl)-6-hydroxy-N-(3-(trifluoromethyl)phenyl)-8-oxatricyclo[3.2.1.02,4]octane-2-carboxamide]
- IC50: > 30 µM
- Emax: 32%

SMILES: Cc1c(NC(=O)[C@]23C[C@@]2(c2ccnc(F)c2)[C@H]2O[C@@H]3C[C@@H]2O)cccc1C(F)(F)F (racemic) [Example 10, rac-(1R,2R,4S,5R,6S)-4-(2-fluoropyridin-4-yl)-6-hydroxy-N-(2-methyl-3-(trifluoromethyl)phenyl)-8-oxatricyclo[3.2.1.02,4]octane-2-carboxamide]
- IC50: > 30 µM
- Emax: 6%

SMILES: Cc1ccc(NC(=O)[C@]23C[C@@]2(c2ccnc(F)c2)[C@H]2O[C@@H]3C[C@@H]2O)cc1C(F)(F)F (racemic) [Example 11, rac-(1R,2R,4S,5R,6S)-4-(2-fluoropyridin-4-yl)-6-hydroxy-N-(4-methyl-3-(trifluoromethyl)phenyl)-8-oxatricyclo[3.2.1.02,4]octane-2-carboxamide]
- IC50: > 30 µM
- Emax: 0%

SMILES: Cc1cc(NC(=O)[C@]23C[C@@]2(c2ccnc(F)c2)[C@H]2O[C@@H]3C[C@@H]2O)cc(C(F)(F)F)c1 (racemic) [Example 12, rac-(1R,2R,4S,5R,6S)-4-(2-fluoropyridin-4-yl)-6-hydroxy-N-(3-methyl-5-(trifluoromethyl)phenyl)-8-oxatricyclo[3.2.1.02,4]octane-2-carboxamide]
- IC50: > 30 µM
- Emax: 21%

SMILES: Cc1ccc(C(F)(F)F)cc1NC(=O)[C@]12C[C@@]1(c1ccnc(F)c1)[C@H]1O[C@@H]2C[C@@H]1O (racemic) [Example 13, rac-(1R,2R,4S,5R,6S)-4-(2-fluoropyridin-4-yl)-6-hydroxy-N-(2-methyl-5-(trifluoromethyl)phenyl)-8-oxatricyclo[3.2.1.02,4]octane-2-carboxamide]
- IC50: > 30 µM
- Emax: 40%

SMILES: O=C(Nc1cccc(C(F)(F)F)c1F)[C@]12C[C@@]1(c1ccnc(F)c1)[C@H]1O[C@@H]2C[C@@H]1O (racemic) [Example 14, rac-(1R,2R,4S,5R,6S)—N-(2-fluoro-3-(trifluoromethyl)phenyl)-4-(2-fluoropyridin-4-yl)-6-hydroxy-8-oxatricyclo[3.2.1.02,4]octane-2-carboxamide]
- IC50: > 30 µM
- Emax: 8%

SMILES: O=C(Nc1ccc(F)c(C(F)(F)F)c1)[C@]12C[C@@]1(c1ccnc(F)c1)[C@H]1O[C@@H]2C[C@@H]1O (racemic) [Example 15, rac-(1R,2R,4S,5R,6S)—N-(4-fluoro-3-(trifluoromethyl)phenyl)-4-(2-fluoropyridin-4-yl)-6-hydroxy-8-oxatricyclo[3.2.1.02,4]octane-2-carboxamide]
- IC50: > 30 µM
- Emax: 5%

SMILES: O=C(Nc1cc(F)cc(C(F)(F)F)c1)[C@]12C[C@@]1(c1ccnc(F)c1)[C@H]1O[C@@H]2C[C@@H]1O (racemic) [Example 16, rac-(1R,2R,4S,5R,6S)—N-(3-fluoro-5-(trifluoromethyl)phenyl)-4-(2-fluoropyridin-4-yl)-6-hydroxy-8-oxatricyclo[3.2.1.02,4]octane-2-carboxamide]
- IC50: > 30 µM
- Emax: 34%

SMILES: O=C(Nc1cc(C(F)(F)F)ccc1F)[C@]12C[C@@]1(c1ccnc(F)c1)[C@H]1O[C@@H]2C[C@@H]1O (racemic) [Example 17, rac-(1R,2R,4S,5R,6S)—N-(2-fluoro-5-(trifluoromethyl)phenyl)-4-(2-fluoropyridin-4-yl)-6-hydroxy-8-oxatricyclo[3.2.1.02,4]octane-2-carboxamide]
- IC50: > 30 µM
- Emax: 17%

SMILES: O=C(Nc1ccc(Cl)c(C(F)(F)F)c1)[C@]12C[C@@]1(c1ccnc(F)c1)[C@H]1O[C@@H]2C[C@@H]1O (racemic) [Example 18, rac-(1R,2R,4S,5R,6S)—N-(4-chloro-3-(trifluoromethyl)phenyl)-4-(2-fluoropyridin-4-yl)-6-hydroxy-8-oxatricyclo[3.2.1.02,4]octane-2-carboxamide]
- IC50: > 30 µM
- Emax: 25%

SMILES: O=C(Nc1cc(Cl)cc(C(F)(F)F)c1)[C@]12C[C@@]1(c1ccnc(F)c1)[C@H]1O[C@@H]2C[C@@H]1O (racemic) [Example 19, rac-(1R,2R,4S,5R,6S)—N-(3-chloro-5-(trifluoromethyl)phenyl)-4-(2-fluoropyridin-4-yl)-6-hydroxy-8-oxatricyclo[3.2.1.02,4]octane-2-carboxamide]
- IC50: > 30 µM
- Emax: 0%

SMILES: COc1cc([C@@]23C[C@]2(C(=O)Nc2cc(C(F)(F)F)ccn2)[C@H]2C[C@H](O)[C@@H]3O2)ccn1 (racemic) [Example 20, rac-(1R,2R,4S,5R,6S)-6-hydroxy-4-(2-methoxypyridin-4-yl)-N-(4-(trifluoromethyl)pyridin-2-yl)-8-oxatricyclo[3.2.1.02,4]octane-2-carboxamide]
- IC50: > 30 µM
- Emax: 24%

SMILES: COc1cc([C@@]23C[C@]2(C(=O)Nc2cc(C(F)(F)F)cc(Cl)n2)[C@H]2C[C@H](O)[C@@H]3O2)ccn1 (racemic) [Example 21, rac-(1R,2R,4S,5R,6S)—N-(6-chloro-4-(trifluoromethyl)pyridin-2-yl)-6-hydroxy-4-(2-methoxypyridin-4-yl)-8-oxatricyclo[3.2.1.02,4]octane-2-carboxamide]
- IC50: > 30 µM
- Emax: 0%
